According to BindingDB's records for doi:10.1002/cbic.201500446 (Hans Knöll Institute, 2015):
Each block holds one compound with its values, some of them ahead of it.

Target: T1, Polyunsaturated fatty acid 5-lipoxygenase (Homo sapiens, UniProt P09917)
T1 sequence (P09917 whole entry): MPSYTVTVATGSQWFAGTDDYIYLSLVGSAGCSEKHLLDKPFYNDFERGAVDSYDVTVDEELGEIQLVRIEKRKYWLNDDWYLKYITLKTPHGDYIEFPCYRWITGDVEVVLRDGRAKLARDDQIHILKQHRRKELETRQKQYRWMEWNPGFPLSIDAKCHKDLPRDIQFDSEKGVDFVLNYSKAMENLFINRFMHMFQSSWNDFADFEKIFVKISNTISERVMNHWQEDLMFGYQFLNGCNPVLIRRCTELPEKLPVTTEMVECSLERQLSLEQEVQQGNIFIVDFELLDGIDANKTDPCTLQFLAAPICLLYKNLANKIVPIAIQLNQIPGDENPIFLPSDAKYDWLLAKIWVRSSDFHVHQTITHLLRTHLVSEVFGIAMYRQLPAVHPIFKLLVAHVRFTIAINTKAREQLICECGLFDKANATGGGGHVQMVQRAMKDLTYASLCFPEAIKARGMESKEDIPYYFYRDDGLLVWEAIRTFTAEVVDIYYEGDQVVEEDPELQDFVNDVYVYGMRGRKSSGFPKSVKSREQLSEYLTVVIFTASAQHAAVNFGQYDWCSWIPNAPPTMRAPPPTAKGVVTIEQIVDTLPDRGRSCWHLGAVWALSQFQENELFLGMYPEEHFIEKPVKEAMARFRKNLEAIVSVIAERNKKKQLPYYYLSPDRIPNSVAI
Assay: 5-LO Activity Assay
Method: Purified 5-LO was diluted in PBS containing EDTA (1 mM) and freshly added ATP (1 mM) and incubated with the myxochelin test substances for 10 min at 4°C, followed by 30 s at 37°C. Addition of CaCl2 (2 mM) and arachidonic acid (20 µM) initiatedthe 5-LO product formation. After 10 min, the reaction was terminated by adding ice-old MeOH (1 mL), and the production of 5-LO metabolites was analyzed by RP-HPLC.

SMILES: O=C(NCCCC[C@@H](CO)NC(=O)c1cccc(F)c1)c1cccc(F)c1 [Myxochelin J12]
IC50: > 10 µM

SMILES: O=C(NCCCC[C@@H](CO)NC(=O)c1c(O)cccc1F)c1c(O)cccc1F [Myxochelin J8]
IC50: 3.6 µM

SMILES: O=C(NCCCC[C@@H](CO)NC(=O)c1c(O)cccc1F)c1cccc(O)c1O [Myxochelin J7]
IC50: 1.18 µM

SMILES: O=C(NCCCC[C@@H](CO)NC(=O)c1ccccc1O)c1ccccc1O [Myxochelin J5]
IC50: 9.32 µM

SMILES: O=C(N[C@H](CO)CCCCNC(=O)c1c(O)cccc1F)c1cccc(O)c1O [Myxochelin J6]
IC50: 1.44 µM

SMILES: O=C(NCCCC[C@@H](CO)NC(=O)c1cccc(O)c1O)c1ccccc1 [Myxochelin J1]
IC50: 3.15 µM

SMILES: O=C(NCCCC[C@@H](CO)NC(=O)c1ccccc1F)c1ccccc1F [Myxochelin J11]
IC50: > 10 µM

SMILES: O=C(N[C@H](CO)CCCCNC(=O)c1cccc(O)c1O)c1ccccc1 [Myxochelin J2]
IC50: 2.39 µM

SMILES: O=C(NCCCC[C@@H](CO)NC(=O)c1cccc(O)c1O)c1cccc(O)c1O [Myxochelin A]
IC50: 1.72 µM

Continued, values first:

IC50: 8.09 µM
SMILES: O=C(N[C@H](CO)CCCCNC(=O)c1cccc(O)c1O)c1ccccc1F [Myxochelin J10]

IC50: 3.64 µM
SMILES: O=C(N[C@H](CO)CCCCNC(=O)c1cccc(O)c1O)c1ccccc1Cl [Myxochelin J14]

IC50: 3.54 µM
SMILES: O=C(N[C@H](CO)CCCCNC(=O)c1cccc(O)c1O)c1ccccc1O [Myxochelin J4]

IC50: 1.52 µM
SMILES: O=C(NCCCC[C@@H](CO)NC(=O)c1cccc(O)c1O)c1ccccc1O [Myxochelin J3]

IC50: 8.4 µM
SMILES: O=C(NCCCC[C@@H](CO)NC(=O)c1cccc(O)c1O)c1ccccc1F [Myxochelin J9]

IC50: 4.6 µM
SMILES: O=C(NCCCC[C@@H](CO)NC(=O)c1cccc(O)c1O)c1ccccc1Cl [Myxochelin J13]
